{"source": "paper doi:10.1101/2021.04.08.439011v1", "about": "(biorxiv, 2021)", "key": {"RAF1": {"target": "RAF1 (Homo sapiens, UniProt P04049)", "settings": "1 µM; binder"}, "RET(V804L)": {"target": "RET(V804L) (Homo sapiens, UniProt P07949, V804L)", "settings": "1 µM; binder"}, "HPK1": {"target": "HPK1 (Homo sapiens, UniProt Q92918)", "sequence (Q92918 whole entry)": "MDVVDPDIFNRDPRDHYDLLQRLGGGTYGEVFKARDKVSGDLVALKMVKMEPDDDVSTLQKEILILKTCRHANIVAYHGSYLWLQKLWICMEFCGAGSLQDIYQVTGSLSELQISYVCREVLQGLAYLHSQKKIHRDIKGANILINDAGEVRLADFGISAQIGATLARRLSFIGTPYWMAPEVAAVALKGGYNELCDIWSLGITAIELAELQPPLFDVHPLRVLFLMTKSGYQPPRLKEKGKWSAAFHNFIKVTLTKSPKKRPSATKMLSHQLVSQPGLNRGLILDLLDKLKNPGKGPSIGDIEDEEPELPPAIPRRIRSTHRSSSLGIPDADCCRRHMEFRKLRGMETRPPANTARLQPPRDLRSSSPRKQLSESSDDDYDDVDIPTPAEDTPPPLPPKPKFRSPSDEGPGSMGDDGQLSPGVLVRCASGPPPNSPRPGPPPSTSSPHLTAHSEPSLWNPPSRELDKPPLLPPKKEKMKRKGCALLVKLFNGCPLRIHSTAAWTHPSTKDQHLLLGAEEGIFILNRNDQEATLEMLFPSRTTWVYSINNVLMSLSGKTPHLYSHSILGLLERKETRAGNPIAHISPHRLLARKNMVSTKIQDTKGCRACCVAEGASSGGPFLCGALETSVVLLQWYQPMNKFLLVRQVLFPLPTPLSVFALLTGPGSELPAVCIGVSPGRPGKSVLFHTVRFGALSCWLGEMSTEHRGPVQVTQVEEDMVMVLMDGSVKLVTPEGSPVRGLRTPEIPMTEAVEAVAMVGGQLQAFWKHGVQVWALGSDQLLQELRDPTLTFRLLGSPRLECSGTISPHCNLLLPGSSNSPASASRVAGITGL", "settings": "1 µM; binder"}, "YANK3": {"target": "YANK3 (Homo sapiens, UniProt Q86UX6)", "settings": "1 µM; binder"}, "MUSK": {"target": "MUSK (Homo sapiens, UniProt O15146)", "settings": "1 µM; binder"}, "CHEK1": {"target": "CHEK1 (Homo sapiens, UniProt O14757)", "settings": "1 µM; binder"}, "KIT(D816V)": {"target": "KIT(D816V) (Homo sapiens, UniProt P10721, D816V)", "settings": "1 µM; binder"}, "EGFR(L861Q)": {"target": "EGFR(L861Q) (Homo sapiens, UniProt P00533, L861Q)", "settings": "1 µM; binder"}, "RIPK4": {"target": "RIPK4 (Homo sapiens, UniProt P57078)", "settings": "1 µM; binder"}, "PKAC-alpha": {"target": "PKAC-alpha (Homo sapiens, UniProt P17612)", "settings": "1 µM; binder"}, "DCAMKL1": {"target": "DCAMKL1 (Homo sapiens, UniProt O15075)", "settings": "1 µM; binder"}, "ABL1(F317L)": {"target": "ABL1(F317L) (Homo sapiens, UniProt P00519, F317L)", "sequence (P00519 whole entry F317L)": "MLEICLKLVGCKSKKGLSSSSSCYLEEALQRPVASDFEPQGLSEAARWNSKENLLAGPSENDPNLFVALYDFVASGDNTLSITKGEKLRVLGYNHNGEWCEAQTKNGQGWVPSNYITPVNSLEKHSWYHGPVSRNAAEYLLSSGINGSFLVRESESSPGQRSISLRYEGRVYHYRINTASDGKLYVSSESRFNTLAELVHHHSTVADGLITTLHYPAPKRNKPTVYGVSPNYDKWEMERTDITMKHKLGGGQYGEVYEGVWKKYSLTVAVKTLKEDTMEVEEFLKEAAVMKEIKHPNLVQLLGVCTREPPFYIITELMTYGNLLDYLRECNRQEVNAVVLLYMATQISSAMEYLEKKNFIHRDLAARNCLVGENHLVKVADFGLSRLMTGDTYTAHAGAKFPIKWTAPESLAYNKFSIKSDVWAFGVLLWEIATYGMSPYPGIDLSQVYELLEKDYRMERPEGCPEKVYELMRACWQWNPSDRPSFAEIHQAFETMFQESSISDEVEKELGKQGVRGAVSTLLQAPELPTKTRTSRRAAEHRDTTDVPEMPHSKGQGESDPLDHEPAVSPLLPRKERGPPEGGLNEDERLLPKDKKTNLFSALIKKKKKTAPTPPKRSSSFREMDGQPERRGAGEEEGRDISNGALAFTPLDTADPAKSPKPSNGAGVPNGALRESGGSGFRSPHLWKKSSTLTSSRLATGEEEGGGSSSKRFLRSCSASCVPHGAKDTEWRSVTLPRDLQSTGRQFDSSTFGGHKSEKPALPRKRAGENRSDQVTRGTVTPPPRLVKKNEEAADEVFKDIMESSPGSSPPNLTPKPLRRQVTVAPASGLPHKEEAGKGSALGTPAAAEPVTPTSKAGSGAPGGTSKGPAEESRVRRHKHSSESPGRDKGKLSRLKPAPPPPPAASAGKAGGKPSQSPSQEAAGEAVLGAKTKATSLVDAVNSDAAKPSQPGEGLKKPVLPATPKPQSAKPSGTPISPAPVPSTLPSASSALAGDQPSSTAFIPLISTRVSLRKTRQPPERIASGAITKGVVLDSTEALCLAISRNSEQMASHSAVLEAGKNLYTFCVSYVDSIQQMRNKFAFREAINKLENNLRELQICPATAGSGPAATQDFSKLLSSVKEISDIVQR", "settings": "1 µM, binder"}, "NLK": {"target": "NLK (Homo sapiens, UniProt Q9UBE8)", "settings": "1 µM; binder"}, "GRK1": {"target": "GRK1 (Homo sapiens, UniProt Q15835)", "settings": "1 µM; binder"}, "ZAK": {"target": "ZAK (Homo sapiens, UniProt Q9NYL2)", "settings": "1 µM; binder"}, "TIE2": {"target": "TIE2 (Homo sapiens, UniProt Q02763)", "settings": "1 µM; binder"}, "ANKK1": {"target": "ANKK1 (Homo sapiens, UniProt Q8NFD2)", "sequence (Q8NFD2 whole entry)": "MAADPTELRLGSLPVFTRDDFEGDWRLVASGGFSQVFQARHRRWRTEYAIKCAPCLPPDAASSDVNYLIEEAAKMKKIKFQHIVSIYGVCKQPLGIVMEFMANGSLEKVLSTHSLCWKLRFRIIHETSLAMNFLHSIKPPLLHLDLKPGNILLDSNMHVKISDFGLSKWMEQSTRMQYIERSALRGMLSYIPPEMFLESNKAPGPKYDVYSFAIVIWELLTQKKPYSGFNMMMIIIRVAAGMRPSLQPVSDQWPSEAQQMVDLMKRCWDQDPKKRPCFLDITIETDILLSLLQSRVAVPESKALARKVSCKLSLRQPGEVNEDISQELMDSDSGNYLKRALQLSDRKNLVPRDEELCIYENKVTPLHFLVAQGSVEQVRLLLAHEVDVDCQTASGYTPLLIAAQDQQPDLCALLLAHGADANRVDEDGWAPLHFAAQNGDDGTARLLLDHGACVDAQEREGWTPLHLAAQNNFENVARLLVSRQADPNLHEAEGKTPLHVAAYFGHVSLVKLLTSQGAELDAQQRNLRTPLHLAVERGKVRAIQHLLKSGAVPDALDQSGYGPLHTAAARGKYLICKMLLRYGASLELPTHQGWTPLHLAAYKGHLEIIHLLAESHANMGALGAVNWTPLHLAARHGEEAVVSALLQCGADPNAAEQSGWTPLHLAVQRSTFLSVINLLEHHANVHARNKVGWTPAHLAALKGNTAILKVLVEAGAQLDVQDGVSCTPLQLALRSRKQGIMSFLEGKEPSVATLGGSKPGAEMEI", "settings": "1 µM; binder"}, "ACVRL1": {"target": "ACVRL1 (Homo sapiens, UniProt P37023)", "sequence (P37023 whole entry)": "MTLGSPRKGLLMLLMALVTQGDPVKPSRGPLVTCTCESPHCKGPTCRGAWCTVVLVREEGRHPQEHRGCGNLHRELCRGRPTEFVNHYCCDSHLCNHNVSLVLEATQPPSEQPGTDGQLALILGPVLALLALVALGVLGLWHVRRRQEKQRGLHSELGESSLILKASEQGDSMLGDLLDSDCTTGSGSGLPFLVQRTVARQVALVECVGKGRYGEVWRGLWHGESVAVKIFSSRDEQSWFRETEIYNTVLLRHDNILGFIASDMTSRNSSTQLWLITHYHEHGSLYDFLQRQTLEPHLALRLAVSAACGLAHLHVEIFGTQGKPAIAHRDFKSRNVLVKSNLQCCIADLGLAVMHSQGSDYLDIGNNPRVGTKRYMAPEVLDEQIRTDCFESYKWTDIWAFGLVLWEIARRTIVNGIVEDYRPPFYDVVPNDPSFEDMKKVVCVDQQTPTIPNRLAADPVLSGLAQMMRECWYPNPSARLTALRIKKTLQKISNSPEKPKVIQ", "settings": "1 µM; binder"}, "MARK1": {"target": "MARK1 (Homo sapiens, UniProt Q9P0L2)", "settings": "1 µM; binder"}, "PKN2": {"target": "PKN2 (Homo sapiens, UniProt Q16513)", "settings": "1 µM; binder"}, "FLT3(ITD,F691L)": {"target": "FLT3(ITD,F691L) (Homo sapiens, UniProt P36888, F691L/ITD)", "sequence (P36888 564-993 F691L)": "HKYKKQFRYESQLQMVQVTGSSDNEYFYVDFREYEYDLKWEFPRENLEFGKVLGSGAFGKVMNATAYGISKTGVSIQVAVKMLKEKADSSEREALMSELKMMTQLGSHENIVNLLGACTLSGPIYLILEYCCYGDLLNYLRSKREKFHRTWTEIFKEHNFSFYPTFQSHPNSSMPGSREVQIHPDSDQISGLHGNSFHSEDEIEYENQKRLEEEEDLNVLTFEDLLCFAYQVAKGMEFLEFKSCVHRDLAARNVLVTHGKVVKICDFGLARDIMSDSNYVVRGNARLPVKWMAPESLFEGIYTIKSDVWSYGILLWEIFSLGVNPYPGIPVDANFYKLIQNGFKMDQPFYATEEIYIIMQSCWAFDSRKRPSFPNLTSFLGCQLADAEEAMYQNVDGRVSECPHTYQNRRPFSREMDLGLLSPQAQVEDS", "settings": "1 µM; binder"}, "SIK2": {"target": "SIK2 (Homo sapiens, UniProt Q9H0K1)", "sequence (Q9H0K1 whole entry)": "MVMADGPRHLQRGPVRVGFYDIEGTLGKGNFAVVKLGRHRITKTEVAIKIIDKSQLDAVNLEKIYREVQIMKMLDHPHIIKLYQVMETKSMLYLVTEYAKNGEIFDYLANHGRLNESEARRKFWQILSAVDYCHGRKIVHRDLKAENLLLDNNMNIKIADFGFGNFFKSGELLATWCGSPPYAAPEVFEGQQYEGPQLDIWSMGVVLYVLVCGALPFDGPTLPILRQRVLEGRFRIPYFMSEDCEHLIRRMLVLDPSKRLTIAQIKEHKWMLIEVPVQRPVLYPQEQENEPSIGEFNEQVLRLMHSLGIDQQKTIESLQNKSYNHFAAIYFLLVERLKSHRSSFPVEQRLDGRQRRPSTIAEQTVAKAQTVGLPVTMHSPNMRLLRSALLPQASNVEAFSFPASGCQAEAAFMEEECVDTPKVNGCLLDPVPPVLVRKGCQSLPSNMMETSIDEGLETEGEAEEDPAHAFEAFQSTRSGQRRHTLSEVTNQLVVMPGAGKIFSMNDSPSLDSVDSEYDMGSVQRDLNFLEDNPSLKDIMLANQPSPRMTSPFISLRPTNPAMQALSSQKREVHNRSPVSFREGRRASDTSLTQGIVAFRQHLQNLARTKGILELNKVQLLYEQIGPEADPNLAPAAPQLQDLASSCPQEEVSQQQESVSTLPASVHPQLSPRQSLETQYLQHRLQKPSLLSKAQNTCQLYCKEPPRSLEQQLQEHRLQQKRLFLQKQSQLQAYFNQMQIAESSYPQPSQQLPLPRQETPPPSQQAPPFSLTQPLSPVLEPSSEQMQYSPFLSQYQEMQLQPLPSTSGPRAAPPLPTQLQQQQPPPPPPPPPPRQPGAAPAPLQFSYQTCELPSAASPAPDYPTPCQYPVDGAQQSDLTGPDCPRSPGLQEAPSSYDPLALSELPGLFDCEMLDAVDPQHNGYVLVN", "settings": "1 µM; binder"}, "CDK5": {"target": "CDK5 (Homo sapiens, UniProt Q00535)", "sequence (Q00535 whole entry)": "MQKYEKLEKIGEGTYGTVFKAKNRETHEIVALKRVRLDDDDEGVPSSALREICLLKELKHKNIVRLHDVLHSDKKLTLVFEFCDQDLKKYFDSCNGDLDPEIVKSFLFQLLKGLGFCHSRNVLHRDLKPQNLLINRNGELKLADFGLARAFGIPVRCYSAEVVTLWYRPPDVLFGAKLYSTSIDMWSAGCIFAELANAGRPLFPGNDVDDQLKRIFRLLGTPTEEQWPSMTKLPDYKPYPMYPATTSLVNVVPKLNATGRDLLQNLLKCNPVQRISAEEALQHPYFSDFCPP", "settings": "1 µM; binder"}, "HIPK2": {"target": "HIPK2 (Homo sapiens, UniProt Q9H2X6)", "settings": "1 µM; binder"}, "PIK3C2B": {"target": "PIK3C2B (Homo sapiens, UniProt O00750)", "settings": "1 µM; binder"}, "TEC": {"target": "TEC (Homo sapiens, UniProt P42680)", "settings": "1 µM; binder"}, "EGFR(S752-I759del)": {"target": "EGFR(S752-I759del) (Homo sapiens, UniProt P00533, DEL752-759)", "settings": "1 µM; binder"}, "MAST1": {"target": "MAST1 (Homo sapiens, UniProt Q9Y2H9)", "settings": "1 µM; binder"}, "AXL": {"target": "AXL (Homo sapiens, UniProt P30530)", "settings": "1 µM; binder"}, "MET(M1250T)": {"target": "MET(M1250T) (Homo sapiens, UniProt P08581, M1250T)", "settings": "1 µM; binder"}}, "note": "Like-named read-outs stand apart in the source and are kept apart here."}
{"smiles": "CNc1ncc2cc(-c3ccc(-c4cccc(C)n4)cc3Cl)c(=O)n(C[C@H]3OC[C@H](N)CO3)c2n1", "note": "[compound 6, G-5555]", "values": [{"measurement": "Percent Control", "setting": "RAF1", "result": 100, "unit": "%"}, {"measurement": "Percent Control", "setting": "RET(V804L)", "result": 100, "unit": "%"}, {"measurement": "Percent Control", "setting": "HPK1", "result": 26, "unit": "%"}, {"measurement": "Percent Control", "setting": "YANK3", "result": 79, "unit": "%"}, {"measurement": "Percent Control", "setting": "MUSK", "result": 100, "unit": "%"}, {"measurement": "Percent Control", "setting": "CHEK1", "result": 100, "unit": "%"}, {"measurement": "Percent Control", "setting": "KIT(D816V)", "result": 100, "unit": "%"}, {"measurement": "Percent Control", "setting": "EGFR(L861Q)", "result": 100, "unit": "%"}, {"measurement": "Percent Control", "setting": "RIPK4", "result": 100, "unit": "%"}, {"measurement": "Percent Control", "setting": "PKAC-alpha", "result": 100, "unit": "%"}, {"measurement": "Percent Control", "setting": "DCAMKL1", "result": 79, "unit": "%"}, {"measurement": "Percent Control", "setting": "ABL1(F317L); nonphosphorylated", "result": 87, "unit": "%"}, {"measurement": "Percent Control", "setting": "ABL1(F317L); phosphorylated", "result": 100, "unit": "%"}, {"measurement": "Percent Control", "setting": "NLK", "result": 17, "unit": "%"}, {"measurement": "Percent Control", "setting": "GRK1", "result": 100, "unit": "%"}, {"measurement": "Percent Control", "setting": "ZAK", "result": 100, "unit": "%"}, {"measurement": "Percent Control", "setting": "TIE2", "result": 52, "unit": "%"}, {"measurement": "Percent Control", "setting": "ANKK1", "result": 87, "unit": "%"}, {"measurement": "Percent Control", "setting": "ACVRL1", "result": 100, "unit": "%"}, {"measurement": "Percent Control", "setting": "MARK1", "result": 68, "unit": "%"}, {"measurement": "Percent Control", "setting": "PKN2", "result": 100, "unit": "%"}, {"measurement": "Percent Control", "setting": "FLT3(ITD,F691L)", "result": 43, "unit": "%"}, {"measurement": "Percent Control", "setting": "SIK2", "result": 0.8, "unit": "%"}, {"measurement": "Percent Control", "setting": "CDK5", "result": 98, "unit": "%"}, {"measurement": "Percent Control", "setting": "HIPK2", "result": 100, "unit": "%"}, {"measurement": "Percent Control", "setting": "PIK3C2B", "result": 100, "unit": "%"}, {"measurement": "Percent Control", "setting": "TEC", "result": 100, "unit": "%"}, {"measurement": "Percent Control", "setting": "EGFR(S752-I759del)", "result": 100, "unit": "%"}, {"measurement": "Percent Control", "setting": "MAST1", "result": 0.4, "unit": "%"}, {"measurement": "Percent Control", "setting": "AXL", "result": 96, "unit": "%"}, {"measurement": "Percent Control", "setting": "MET(M1250T)", "result": 45, "unit": "%"}]}
